In patent publication US20080227803A1, “Indolomorphinan Derivative Having Carboxy in 6'-Position” (SHIOONOGI & CO., LTD., a legal entity of Japan, priority 2004, published 2008):

What was measured:
opioid δ receptor = target: T1, opioid δ receptor (Rattus norvegicus, UniProt P33533); assay: Opioid receptor binding assay, [3H]-DADLE, rat cerebrum membrane fraction
T1 construct: Four hundred and eighty microliters of the rat cerebrum membrane fraction; from tissue; host or cells: rat (Slc:SD) cerebrum, crude membrane fraction

[1] = system: retching and emesis induced by morphine; assay: Effect on the retching and emesis induced by morphine in ferrets; format: in vivo; conditions: for Duration / Occurrence times / Latent period: mean ± SE; for Latent period: no symptom = 30 min; for Number of individuals with the symptom/Number of cases: morphine 0.6 mg/kg s.c., 30 min observation
Experimental: About 30 minutes after feeding, ferrets were placed into observation cages and administered with the test compound. The test compound was dissolved into 15% Solutol (Registered trademark) HS15 containing 5% of N,N-dimethylacetamide and 5% of N-methyl-glucamine, and administered at 5 mg/kg. Thirty minutes after administration of the test compound solution, morphine at 0.6 mg/kg was subcutaneously administered in a solution volume of 1 mL/kg, and the retching and emesis symptoms were visually observed for 30 minutes after administration of morphine.
The frequency, latency (the period from the administration of morphine to the initial occurrence of emetic symptom) and duration (the period from the initial emesis to the final emesis) of retching (rhythmical contraction of abdomen), emesis (emetic behavior to discharge the vomit or similar behavior) and both the symptoms were tabulated.
Meanwhile, the latency of a case showing no emesis was assumed to be 30 minutes that were the longest time of observation, and a duration of less than 1 minute after the occurrence of emesis was expressed as 1 minute for the sake of convenience.

[2] = Retching + emesis, I-1 0.05 mg/kg
[3] = Retching + emesis, I-1 0.5 mg/kg

T1 sequence (P33533 whole entry): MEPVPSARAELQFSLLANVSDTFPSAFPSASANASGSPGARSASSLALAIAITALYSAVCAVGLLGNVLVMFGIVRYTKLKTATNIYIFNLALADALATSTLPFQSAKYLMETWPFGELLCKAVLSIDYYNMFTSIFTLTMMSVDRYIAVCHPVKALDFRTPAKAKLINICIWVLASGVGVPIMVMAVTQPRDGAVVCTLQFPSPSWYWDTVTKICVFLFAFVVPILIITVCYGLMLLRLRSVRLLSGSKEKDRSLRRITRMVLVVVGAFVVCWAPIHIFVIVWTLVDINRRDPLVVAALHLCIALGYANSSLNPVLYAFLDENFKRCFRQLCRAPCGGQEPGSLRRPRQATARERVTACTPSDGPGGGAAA

## CC(=O)OC(C)OC(=O)c1ccc2c3c([nH]c2c1)[C@@H]1Oc2c(O)ccc4c2[C@@]12CCN(CC1CC1)[C@H](C4)[C@]2(O)C3 (stereo partly drawn) [Compound I-8]
Opioid δ receptor
  Ki: 1.38 nM

## CC(OC(=O)c1ccc2c3c([nH]c2c1)[C@@H]1Oc2c(O)ccc4c2[C@@]12CCN(CC1CC1)[C@H](C4)[C@]2(O)C3)OC(=O)C(C)C (stereo partly drawn) [Compound I-9]
Opioid δ receptor
  Ki: 1.25 nM

## CC(C)(C)C(=O)OCOC(=O)c1ccc2c3c([nH]c2c1)[C@@H]1Oc2c(O)ccc4c2[C@@]12CCN(CC1CC1)[C@H](C4)[C@]2(O)C3 [Compound I-2]
Opioid δ receptor
  Ki: 1.7 nM

## O=C(O)c1ccc2c3c([nH]c2c1)[C@@H]1Oc2c(O)ccc4c2[C@@]12CCN(CC1CC1)[C@H](C4)[C@]2(O)C3 [Compound I-1, 17-cyclopropylmethyl-6,7-didehydro-4,5α-epoxy-3,14β-dihydroxy-6′-carboxy-6,7-2′,3′-indolomorphinan]
Opioid δ receptor
  Ki: 0.62 nM
[1]; Emesis, I-1 0.05 mg/kg
  Duration: 0 ± 0 min
  Occurrence times: 0 ± 0
  Latent period: 30 ± 0 min
  Number of individuals with the symptom/Number of cases: 0/6
[1]; Emesis, I-1 0.5 mg/kg
  Duration: 0 ± 0 min
  Occurrence times: 0 ± 0
  Latent period: 30 ± 0 min
  Number of individuals with the symptom/Number of cases: 0/6
[1]; Emesis, I-1 5 mg/kg
  Duration: 0 ± 0 min
  Occurrence times: 0 ± 0
  Latent period: 30 ± 0 min
  Number of individuals with the symptom/Number of cases: 0/6
[1]; [2]
  Duration: 0 ± 0 min
  Occurrence times: 0 ± 0
  Latent period: 30 ± 0 min
  Number of individuals with the symptom/Number of cases: 0/6
[1]; [3]
  Duration: 0 ± 0 min
  Occurrence times: 0 ± 0
  Latent period: 30 ± 0 min
  Number of individuals with the symptom/Number of cases: 0/6
[1]; Retching + emesis, I-1 5 mg/kg
  Duration: 0 ± 0 min
  Occurrence times: 0 ± 0
  Latent period: 30 ± 0 min
  Number of individuals with the symptom/Number of cases: 0/6
[1]; Retching, I-1 0.05 mg/kg
  Duration: 0 ± 0 min
  Occurrence times: 0 ± 0
  Latent period: 30 ± 0 min
  Number of individuals with the symptom/Number of cases: 0/6
[1]; Retching, I-1 0.5 mg/kg
  Duration: 0 ± 0 min
  Occurrence times: 0 ± 0
  Latent period: 30 ± 0 min
  Number of individuals with the symptom/Number of cases: 0/6
[1]; Retching, I-1 5 mg/kg
  Duration: 0 ± 0 min
  Occurrence times: 0 ± 0
  Latent period: 30 ± 0 min
  Number of individuals with the symptom/Number of cases: 0/6

## Cc1oc(=O)oc1COC(=O)c1ccc2c3c([nH]c2c1)[C@@H]1Oc2c(O)ccc4c2[C@@]12CCN(CC1CC1)[C@H](C4)[C@]2(O)C3 [Compound I-3]
Opioid δ receptor
  Ki: 1.06 nM

## CCCC(=O)OCOC(=O)c1ccc2c3c([nH]c2c1)[C@@H]1Oc2c(O)ccc4c2[C@@]12CCN(CC1CC1)[C@H](C4)[C@]2(O)C3 [Compound I-4]
Opioid δ receptor
  Ki: 1.14 nM
